{
  "source": "patent US9498546B2",
  "about": "“Synthesis and application of novel imaging agents conjugated to DPA 713 analogs for imaging inflammation” (THE JOHNS HOPKINS UNIVERSITY, priority 2012, dated 2016)",
  "key": {"[1]": {"target": "T1, TSPO (3H-R-PK11195 binding in J774 macrophages) (Mus musculus, UniProt P50637)", "T1 construct": "using a fixed number of live murine J774 macrophage-like cells; endogenous in cells; host or cells: J774 murine macrophage-like cell line (live cells)", "assay": "IC50 determination: inhibition of [3H]PK11195 binding in live J774 macrophage-like cells", "parameters": "species or system murine", "conditions": "fixed concentration of [3H]PK11195, FIG. 3", "description": "FIG. 3 is a graph showing the IC50 for inhibition of 3H-R-PK11195 binding in J774 macrophages by DPA713-IRDye680LT (nM).\nThe IC50 value determination was done by using a fixed number of live murine J774 macrophage-like cells and incubating increasing concentrations of DPA-713-IRDye against a fixed concentration of [^3H]PK11195. All reactions and washes (50 mM Tris, pH 7.4) are done using a Brandell Cell Harvester and the cells are counted in a scintillation counter with scintillent at the end. The cpm for each group is then plotted against the log of DPA-713-IRDye concentration and the data fitted to a sigmoidal curve. The 50% inhibition of [^3H]PK11195 binding is then determined and reported as the IC50 (FIG. 3)."}, "[2]": {"tested_on": "CD68+ macrophages in MDA-MB-231 xenografts", "assay": "Ex vivo fluorescence microscopy of MDA-MB-231 xenografts", "type": "in vivo, mice", "conditions": "24 hours post-injection", "description": "FIG. 6 is a series of photomicrographs of ex vivo fluorescence microscopy of DPA-713-IRDye680LT in MDA-MB-231 xenografts at 24 hours post-injection.\nEx vivo DPA-713-IRDye680LT microscopy. The mice used in the in vivo NIRF studies (PC-3 analog xenografts and MDA-MB-231 analog xenografts) were sacrificed at the end of their studies and their tumors were collected and frozen on dry ice for cryosectioning to 20 microns on charged glass slides (VWR). The sections were then probed with both anti-TSPO Ab (Novus Biologicals NBP1-45769, 1:70) labeled directly with Lissamine sulfonyl chloride (Aldrich) according to the known method and anti-CD68 Ab (Abcam ab53444, 1:40) and lastly with Hoechst 33342 (Invitrogen, 1 ng/mL). Both antibodies were added simultaneously in a 10% FBS in PBS solution applied directly to the freshly thawed sections and allowed to sit at room temperature for 1 hour. The sections were washed twice at room temperature for 5 minutes each with PBS prior to the addition of sheep-anti-rat-FITC (Abcam ab6848-1, 1:250) in PBS at room temperature for 30 minutes. The secondary antibody solution was removed and the slides were bathed in Hoechst solution (PBS) for 1.5 minutes at room temperature before being washed twice as before with PBS. […] All images are recorded and processed using Nikon Imaging Software Elements. […]"}, "[3]": {"tested_on": "CD68+ macrophages in PC-3 PIP and PC-3 flu xenografts", "assay": "Ex vivo fluorescence microscopy of PC-3 PIP and PC-3 flu xenografts", "type": "in vivo, mice", "description": "FIG. 8 is a series of photomicrographs showing ex vivo fluorescence microscopy of DPA-713-IRDye680LT in PC-3 PIP and PC-3 flu xenografts at 24 hours post-injection. […] A & B. PIP tumor DPA-713-IRDye680LT only; C.\nEx vivo DPA-713-IRDye680LT microscopy. The mice used in the in vivo NIRF studies (PC-3 analog xenografts and MDA-MB-231 analog xenografts) were sacrificed at the end of their studies and their tumors were collected and frozen on dry ice for cryosectioning to 20 microns on charged glass slides (VWR). The sections were then probed with both anti-TSPO Ab (Novus Biologicals NBP1-45769, 1:70) labeled directly with Lissamine sulfonyl chloride (Aldrich) according to the known method and anti-CD68 Ab (Abcam ab53444, 1:40) and lastly with Hoechst 33342 (Invitrogen, 1 ng/mL). Both antibodies were added simultaneously in a 10% FBS in PBS solution applied directly to the freshly thawed sections and allowed to sit at room temperature for 1 hour. The sections were washed twice at room temperature for 5 minutes each with PBS prior to the addition of sheep-anti-rat-FITC (Abcam ab6848-1, 1:250) in PBS at room temperature for 30 minutes. The secondary antibody solution was removed and the slides were bathed in Hoechst solution (PBS) for 1.5 minutes at room temperature before being washed twice as before with PBS. The slides were then mounted in Dako Cytomation aqueous mounting media with a glass coverslip and viewed 30 minutes later using a Nikon 80i upright epifluorescence microscope equipped with a Nikon DS-QilMc darkfield CCD camera and excited by a Nikon Intensilight C-HGFI lamp. All images are recorded and processed using Nikon Imaging Software Elements.\nFIG. 9 depicts a series of NIRF image showing in vivo, ex vivo and in vitro binding of DPA-713-IRDye800CW to androgen sensitive (TSPO−) LNCaP (9E), androgen insensitive (TSPO+) PC-3 prostate xenografts and TSPO+ subcutaneous and orthotopic U87 GBM xenografts."}, "[4]": {"tested_on": "LPS-stimulated J774 macrophages (TSPO)", "assay": "In vitro J774 murine macrophage uptake studies (fluorescence microscopy, with or without blocking)", "type": "cell-based", "description": "FIG. 4 is a series of photomicrographs (A-I) of J774 macrophages that were cultured in 8 well chamber slides to 80% confluence. LPS was then added to each well for 24 hours to stimulate the cells. […] The cells were returned to the incubator for either 1 hour or 24 hours. The solutions were then removed, the nuclei were labeled with Hoechst 33342 and the cells were briefly washed before mounting and viewing under a fluorescence microscope.\nIn vitro J774 murine macrophage uptake studies. The immortalized J774 murine macrophage-like cell line was cultured in RPMI1640+20% FBS+1% penicillin+ streptomycin media in 8-well chamber slides (Fisher Scientific) to approximately 80% confluence. The cells were then stimulated with 1 ng/mL of LPS (Sigma, E. coli 055:B5) for 24 hours prior to addition of the probes of the present invention to 40 nM final concentration. […] The cells were exposed to the fluorescent probes and blocking compounds for either 1 hour or 24 hours prior to exposing to 1 ng/mL of Hoechst 33342 dye (Invitrogen), followed by washing twice briefly with PBS, pH 7.5. The chambers were then removed and the slide mounted with Dako Cytomation aqueous mounting media and a glass coverslip. The cells were visualized using a Nikon 80i upright epifluorescence microscope equipped with a Nikon DS-QilMc darkfield CCD camera and processed using Nikon Image Software on an adjacent workstation. The dyes were excited using either a Nikon Intensilight C-HGFI lamp (IRDye680 and Hoechst) or a Sutter Instruments Co. (Novato, Calif.) LB/LB-30 xenon lamp (IRDye800).\nJ774 Cell Uptake Studies. J774 macrophages were cultured in 8 well chamber slides to 80% confluence. LPS was then added to each well for 24 hours to stimulate the cells. […] The cells were returned to the incubator for either 1 hour or 24 hours. The solutions were then removed, the nuclei were labeled with Hoechst 33342 and the cells were briefly washed before mounting and viewing under a fluorescence microscope. […] The tracer localization for both analogs is perinuclear and granular in appearance and is consistent with the gross distribution pattern of TSPO expression in other mononuclear cell-derived lines."}},
  "note": "Entries after “also recorded” stand apart in the source; their conditions may differ.",
  "data": [
    {"compound": "CCN(CC)C(=O)Cc1c(-c2ccc(OCCNC(=O)CCCCc3cccc(C(=C\\C=C4/N(CCCS(=O)(=O)O)c5ccc6c(S(=O)(=O)O)cc(S(=O)(=O)O)cc6c5C4(C)C)/C=C/C4=[N+](CCCS(=O)(=O)[O-])c5ccc6c(S(=O)(=O)O)cc(S(=O)(=O)O)cc6c5C4(C)C)c3)cc2)nn2c(C)cc(C)nc12", "note": "[DPA-713-IRDye680LT, 3-(2-((1E,3Z,5Z)-3-(3-(5-(2-(4-(3-(2-(diethylamino)-2-oxoethyl)-5,7-dimethylpyrazolo[1,5-a]pyrimidin-2-yl)phenoxy)ethylamino)-5-oxopentyl)phenyl)-5-(1,1-dimethyl-6,8-disulfo-3-(3-sulfopropyl)-1Hbenzo[e]indol-2(3H)-ylidene)penta-1,3-dienyl)-1,1-dimethyl-6,8-disulfo-1H-benzo[e]indolium-3-yl)propane-1-sulfonate]", "values": [
      {"measurement": "IC50", "setting": "[1]", "value": "~325", "unit": "nM"},
      {"measurement": "Cell-specific localization of probe in xenograft sections", "setting": "[2]", "value": "selectively retained by CD68-expressing macrophages; also recorded: sequestered within CD68+ macrophages"},
      {"measurement": "Cell-specific accumulation of probe in prostate tumor xenografts", "setting": "[3]; 24 hours of in vivo biodistribution", "value": "accumulated specifically within CD68+ macrophages"},
      {"measurement": "Probe accumulation, PC-3 PIP compared with PC-3 flu xenografts", "setting": "[3]; 24 hours post-injection", "value": "PC-3 PIPs accumulate more"},
      {"measurement": "Blocking of probe accumulation by unlabeled DPA-713", "setting": "[3]; co-injection with 20 mg/kg unlabeled DPA-713, 24 hours post-injection", "value": "accumulation is blocked"},
      {"measurement": "Blocking of tracer uptake by (R,S)-PK11195", "setting": "[4]; 40 nM tracer + 1 μM (R,S)-PK11195, 24 hours", "value": "no longer blocked"},
      {"measurement": "Blocking of tracer uptake by (R,S)-PK11195", "setting": "[4]; 40 nM tracer + 1 μM unlabeled (R,S)-PK11195, 1 hour", "value": "widespread although incomplete blocking"},
      {"measurement": "Blocking of tracer uptake by unlabeled DPA-713", "setting": "[4]; 40 nM tracer + 1 μM unlabeled DPA-713, 1 hour", "value": "partial but incomplete blocking"}
    ]}
  ]
}
